Reference: ChEMBL document CHEMBL1156230, “Identification of phenylsulfone-substituted quinoxaline (WYE-672) as a tissue selective liver X-receptor (LXR) agonist” (J Med Chem, 2010)
Calls of active or inactive are those of the source. The rule behind the calls is not given here.

Experiments:
Mus musculus [1] = assay: Antiatherosclerotic activity against high fat/high cholesterol fed LDLR-deficient mouse assessed as scd1 gene regulation at 0.6 mg/kg administered with diet for 7 days by Experion chip analysis; format: functional, organism-based; design: dose 0.6 mg/kg
Mus musculus [2] = assay: Antiatherosclerotic activity against high fat/high cholesterol fed LDLR-deficient mouse duodenum assessed as induction of ABCA1 expression at 3 mg/kg administered with diet for 8 weeks; format: functional, organism-based; design: dose 3 mg/kg
Mus musculus [3] = assay: Antiatherosclerotic activity against high fat/high cholesterol fed LDLR-deficient mouse duodenum assessed as induction of ABCG5 expression at 10 mg/kg administered with diet for 8 weeks; format: functional, organism-based; design: dose 10 mg/kg
Mus musculus [4] = assay: Antiatherosclerotic activity against high fat/high cholesterol fed LDLR-deficient mouse duodenum assessed as induction of ABCG8 expression at 0.6 mg/kg administered with diet for 8 weeks; format: functional, organism-based; design: dose 0.6 mg/kg
Mus musculus [5] = assay: Antiatherosclerotic activity against high fat/high cholesterol fed LDLR-deficient mouse duodenum assessed as induction of ABCG8 expression at 10 mg/kg administered with diet for 8 weeks; format: functional, organism-based; design: dose 10 mg/kg
Mus musculus [6] = assay: Antiatherosclerotic activity against high fat/high cholesterol fed LDLR-deficient mouse duodenum assessed as induction of SREBP-1c expression at 10 mg/kg administered with diet for 8 weeks; format: functional, organism-based; design: dose 10 mg/kg
Mus musculus [7] = assay: Antiatherosclerotic activity against high fat/high cholesterol fed LDLR-deficient mouse macrophages assessed as induction of ABCA1 expression at 10 mg/kg administered with diet for 8 weeks; format: functional, organism-based; design: dose 10 mg/kg
Mus musculus [8] = assay: Antiatherosclerotic activity against high fat/high cholesterol fed LDLR-deficient mouse macrophages assessed as induction of ABCA1 expression at 0.6 mg/kg administered with diet for 8 weeks; format: functional, organism-based; design: dose 0.6 mg/kg
Mus musculus [9] = assay: Antiatherosclerotic activity against high fat/high cholesterol fed LDLR-deficient mouse macrophages assessed as induction of ABCA1 expression at 3 mg/kg administered with diet for 8 weeks; format: functional, organism-based; design: dose 3 mg/kg
Mus musculus [10] = assay: Antiatherosclerotic activity against high fat/high cholesterol fed LDLR-deficient mouse macrophages assessed as induction of ABCG1 expression at 3 mg/kg administered with diet for 8 weeks; format: functional, organism-based; design: dose 3 mg/kg
Mus musculus [11] = assay: Antiatherosclerotic activity against high fat/high cholesterol fed LDLR-deficient mouse assessed as abca1 gene regulation at 0.6 mg/kg administered with diet for 7 days by Experion chip analysis; format: functional, organism-based; design: dose 0.6 mg/kg
Mus musculus [12] = assay: Antiatherosclerotic activity against high fat/high cholesterol fed LDLR-deficient mouse assessed as adfp gene regulation at 0.6 mg/kg administered with diet for 7 days by Experion chip analysis; format: functional, organism-based; design: dose 0.6 mg/kg
Mus musculus [13] = assay: Antiatherosclerotic activity against high fat/high cholesterol fed LDLR-deficient mouse assessed as apoc1 gene regulation at 0.6 mg/kg administered with diet for 7 days by Experion chip analysis; format: functional, organism-based; design: dose 0.6 mg/kg
Mus musculus [14] = assay: Antiatherosclerotic activity against high fat/high cholesterol fed LDLR-deficient mouse assessed as pltp gene regulation at 0.6 mg/kg administered with diet for 7 days by Experion chip analysis; format: functional, organism-based; design: dose 0.6 mg/kg
Mus musculus [15] = assay: Antiatherosclerotic activity against high fat/high cholesterol fed LDLR-deficient mouse assessed as ldlr gene regulation at 10 mg/kg administered with diet for 7 days by Experion chip analysis; format: functional, organism-based; design: dose 10 mg/kg
Mus musculus [16] = assay: Antiatherosclerotic activity against high fat/high cholesterol fed LDLR-deficient mouse assessed as Lipc gene regulation at 10 mg/kg administered with diet for 7 days by Experion chip analysis; format: functional, organism-based; design: dose 10 mg/kg
Mus musculus [17] = assay: Antiatherosclerotic activity against high fat/high cholesterol fed LDLR-deficient mouse assessed as Irp1 gene regulation at 10 mg/kg administered with diet for 7 days by Experion chip analysis; format: functional, organism-based; design: dose 10 mg/kg
Mus musculus [18] = assay: Antiatherosclerotic activity against high fat/high cholesterol fed LDLR-deficient mouse assessed as pcsk9 gene regulation at 10 mg/kg administered with diet for 7 days by Experion chip analysis; format: functional, organism-based; design: dose 10 mg/kg
Mus musculus [19] = assay: Antiatherosclerotic activity against high fat/high cholesterol fed LDLR-deficient mouse assessed as pltp gene regulation at 10 mg/kg administered with diet for 7 days by Experion chip analysis; format: functional, organism-based; design: dose 10 mg/kg
Mus musculus [20] = assay: Antiatherosclerotic activity against high fat/high cholesterol fed LDLR-deficient mouse assessed as scd1 gene regulation at 10 mg/kg administered with diet for 7 days by Experion chip analysis; format: functional, organism-based; design: dose 10 mg/kg
Mus musculus [21] = assay: Antiatherosclerotic activity against high fat/high cholesterol fed LDLR-deficient mouse assessed as srebf1 gene regulation at 0.6 mg/kg administered with diet for 7 days by Experion chip analysis; format: functional, organism-based; design: dose 0.6 mg/kg
Mus musculus [22] = assay: Antiatherosclerotic activity against high fat/high cholesterol fed LDLR-deficient mouse assessed as abca1 gene regulation at 3 mg/kg administered with diet for 7 days by Experion chip analysis; format: functional, organism-based; design: dose 3 mg/kg
Mus musculus [23] = assay: Antiatherosclerotic activity against high fat/high cholesterol fed LDLR-deficient mouse assessed as Fasn gene regulation at 3 mg/kg administered with diet for 7 days by Experion chip analysis; format: functional, organism-based; design: dose 3 mg/kg
Mus musculus [24] = assay: Antiatherosclerotic activity against high fat/high cholesterol fed LDLR-deficient mouse assessed as apoc1 gene regulation at 3 mg/kg administered with diet for 7 days by Experion chip analysis; format: functional, organism-based; design: dose 3 mg/kg
Mus musculus [25] = assay: Antiatherosclerotic activity against high fat/high cholesterol fed LDLR-deficient mouse assessed as ldlr gene regulation at 3 mg/kg administered with diet for 7 days by Experion chip analysis; format: functional, organism-based; design: dose 3 mg/kg
Mus musculus [26] = assay: Antiatherosclerotic activity against high fat/high cholesterol fed LDLR-deficient mouse assessed as Lipc gene regulation at 3 mg/kg administered with diet for 7 days by Experion chip analysis; format: functional, organism-based; design: dose 3 mg/kg
Mus musculus [27] = assay: Antiatherosclerotic activity against high fat/high cholesterol fed LDLR-deficient mouse assessed as pcsk9 gene regulation at 3 mg/kg administered with diet for 7 days by Experion chip analysis; format: functional, organism-based; design: dose 3 mg/kg
Mus musculus [28] = assay: Antiatherosclerotic activity against high fat/high cholesterol fed LDLR-deficient mouse assessed as scab1 gene regulation at 3 mg/kg administered with diet for 7 days by Experion chip analysis; format: functional, organism-based; design: dose 3 mg/kg
Mus musculus [29] = assay: Antiatherosclerotic activity against high fat/high cholesterol fed LDLR-deficient mouse assessed as scd1 gene regulation at 3 mg/kg administered with diet for 7 days by Experion chip analysis; format: functional, organism-based; design: dose 3 mg/kg
Mus musculus [30] = assay: Antiatherosclerotic activity against high fat/high cholesterol fed LDLR-deficient mouse assessed as srebf1 gene regulation at 3 mg/kg administered with diet for 7 days by Experion chip analysis; format: functional, organism-based; design: dose 3 mg/kg
Mus musculus [31] = assay: Antiatherosclerotic activity against high fat/high cholesterol fed LDLR-deficient mouse assessed as abca1 gene regulation at 10 mg/kg administered with diet for 7 days by Experion chip analysis; format: functional, organism-based; design: dose 10 mg/kg
Mus musculus [32] = assay: Antiatherosclerotic activity against high fat/high cholesterol fed LDLR-deficient mouse assessed as abcg1 gene regulation at 10 mg/kg administered with diet for 7 days by Experion chip analysis; format: functional, organism-based; design: dose 10 mg/kg
Mus musculus [33] = assay: Antiatherosclerotic activity against high fat/high cholesterol fed LDLR-deficient mouse assessed as abcg5 gene regulation at 10 mg/kg administered with diet for 7 days by Experion chip analysis; format: functional, organism-based; design: dose 10 mg/kg
Mus musculus [34] = assay: Antiatherosclerotic activity against high fat/high cholesterol fed LDLR-deficient mouse assessed as apoe gene regulation at 10 mg/kg administered with diet for 7 days by Experion chip analysis; format: functional, organism-based; design: dose 10 mg/kg
Mus musculus [35] = assay: Antiatherosclerotic activity against high fat/high cholesterol fed LDLR-deficient mouse assessed as Fasn gene regulation at 10 mg/kg administered with diet for 7 days by Experion chip analysis; format: functional, organism-based; design: dose 10 mg/kg
Mus musculus [36] = assay: Antiatherosclerotic activity against high fat/high cholesterol fed LDLR-deficient mouse assessed as apoc1 gene regulation at 10 mg/kg administered with diet for 7 days by Experion chip analysis; format: functional, organism-based; design: dose 10 mg/kg
Mus musculus [37] = assay: Antiatherosclerotic activity against high fat/high cholesterol fed LDLR-deficient mouse assessed as abcg5 gene regulation at 3 mg/kg administered with diet for 8 weeks by Experion chip analysis
Mus musculus [38] = assay: Antiatherosclerotic activity against high fat/high cholesterol fed LDLR-deficient mouse assessed as abcg8 gene regulation at 3 mg/kg administered with diet for 8 weeks by Experion chip analysis

| Compound | Activity (Mus musculus [1]) | Activity (Mus musculus [2]) | Activity (Mus musculus [3]) | Activity (Mus musculus [4]) | Activity (Mus musculus [5]) | Activity (Mus musculus [6]) | Activity (Mus musculus [7]) | Activity (Mus musculus [8]) | Activity (Mus musculus [9]) | Activity (Mus musculus [10]) | Activity (Mus musculus [11]) | Activity (Mus musculus [12]) | Activity (Mus musculus [13]) | Activity (Mus musculus [14]) | Activity (Mus musculus [15]) | Activity (Mus musculus [16]) | Activity (Mus musculus [17]) | Activity (Mus musculus [18]) | Activity (Mus musculus [19]) | Activity (Mus musculus [20]) | also measured |
| --- | --- | --- | --- | --- | --- | --- | --- | --- | --- | --- | --- | --- | --- | --- | --- | --- | --- | --- | --- | --- | --- |
| Cc1nc2c(C(F)(F)F)cccc2nc1-c1ccc(-c2cccc(S(C)(=O)=O)c2)cc1 | Active | Active | Active | Active | Active | Active | Active | Active | Active | Active | Active | Active | Active | Active | Active | Active | Active | Active | Active | Active | Activity (Mus musculus [21]): Active; Activity (Mus musculus [22]): Active; Activity (Mus musculus [23]): Active; Activity (Mus musculus [24]): Active; Activity (Mus musculus [25]): Active; Activity (Mus musculus [26]): Active; Activity (Mus musculus [27]): Active; Activity (Mus musculus [28]): Active; Activity (Mus musculus [29]): Active; Activity (Mus musculus [30]): inactive; Activity (Mus musculus [31]): Active; Activity (Mus musculus [32]): Active; Activity (Mus musculus [33]): Active; Activity (Mus musculus [34]): Active; Activity (Mus musculus [35]): Active; Activity (Mus musculus [36]): Active; Activity (Mus musculus [37]): Active; Activity (Mus musculus [38]): Active |
| O=C(O)Cc1cccc(OCCCN(Cc2cccc(C(F)(F)F)c2Cl)CC(c2ccccc2)c2ccccc2)c1 | Active | Active | Active | Active | Active | Active | Active | Active | Active | Active | Active | Active | Active | Active | Active | Active | Active | Active | Active | Active | Activity (Mus musculus [21]): Active; Activity (Mus musculus [22]): Active; Activity (Mus musculus [23]): Active; Activity (Mus musculus [24]): Active; Activity (Mus musculus [25]): Active; Activity (Mus musculus [26]): Active; Activity (Mus musculus [27]): Active; Activity (Mus musculus [28]): Active; Activity (Mus musculus [29]): Active; Activity (Mus musculus [30]): inactive; Activity (Mus musculus [31]): Active; Activity (Mus musculus [32]): Active; Activity (Mus musculus [33]): Active; Activity (Mus musculus [34]): Active; Activity (Mus musculus [35]): Active; Activity (Mus musculus [36]): Active; Activity (Mus musculus [37]): Active; Activity (Mus musculus [38]): Active |
